System: Factor VII
Experiment: In vivo Factor VII knockdown with anti-Factor VII siRNA in lipidoid formulations
Details: mice, 0.01 mg/kg siRNA dosing
Description: C57BL/6 mice (Charles River Labs) received either saline or siRNA in lipidoid formulations via tail vein injection at a volume of 0.01 ml/g. […] At 48 hours after administration, animals were anesthetized by isofluorane inhalation and blood was collected into serum separator tubes by retroorbital bleed. Serum levels of Factor VII protein were determined in samples using a chromogenic assay (Biophen FVII, Aniara Corporation) according to the manufacturer's protocols. A standard curve was generated using serum collected from saline-treated animals. Exemplary results are depicted in FIG. 7.
To test siRNA delivery efficacy in vivo, a mouse model for liver delivery was used. […] Once produced by hepatocytes, Factor VII is released into the bloodstream, and a baseline level of expression can be determined by simple blood draw and quantification of protein levels by colorimetric assay. By delivering anti-Factor VII siRNA to hepatocytes, knockdown of this model protein can be achieved and a percentage of silencing can be determined by comparison to an untreated control. […]
Following the initial in vivo screening experiments, two compounds were used to conduct a dose response. […] In addition to Factor VII measurement, the change in mouse body weight is recorded and a loss in weight is generally considered formulation induced toxicity (See FIG. 13b and FIG. 14b). […]

CCCCCCCCCCC(O)CN(CCN1CCN(CCN(CC(O)CCCCCCCCCC)CC(O)CCCCCCCCCC)CC1)CCN(CC(O)CCCCCCCCCC)CC(O)CCCCCCCCCC (centres unmarked) [C12-200]
difference between Factor VII results of racemic C12-200 and those of the R or S forms: insignificant

CCCCCCCCCC[C@@H](O)CN(CCN1CCN(CCN(C[C@H](O)CCCCCCCCCC)C[C@H](O)CCCCCCCCCC)CC1)CCN(C[C@H](O)CCCCCCCCCC)C[C@H](O)CCCCCCCCCC [(R)-C12-200]
reduction of systemic Factor VII (preliminary): approximately 50%

From patent publication US8450298B2, “Aminoalcohol lipidoids and uses thereof” (Massachusetts Institute of Technology, priority 2008, dated 2013)
